Measurements from the NIST ThermoML archive (doi:10.1021/je800653d).

Assay: xn = mol fraction of the nth substance listed
Details: 101 kPa, Liquid; for viscosity: Capillary tube (Ostwald / Ubbelohde) method; for speed of sound: Linear variable-path acoustic interferometer

O=S1(=O)CCCC1 [sulfolane] + CCCCOC(C)=O
Details	mass density, 303.15 K [kg/m3]	mass density, 308.15 K [kg/m3]	mass density, 313.15 K [kg/m3]	speed of sound, 303.15 K [m/s]	speed of sound, 308.15 K [m/s]	speed of sound, 313.15 K [m/s]	viscosity, 303.15 K [mPa·s]	viscosity, 308.15 K [mPa·s]	viscosity, 313.15 K [mPa·s]
x1 = 0.0311	880.8	876.9	871.8	1182	1164	1146	0.6426	0.6016	0.5637
x1 = 0.1903	932.3	928.6	923.5	1232	1212	1193	0.895	0.8248	0.7699
x1 = 0.3402	985.2	980.9	975.4	1280	1261	1245	1.242	1.145	1.066
x1 = 0.474	1036.1	1030.9	1025.4	1327	1316	1301	1.722	1.577	1.457
x1 = 0.5789	1078.5	1072.7	1067.1	1372	1366	1354	2.3	2.082	1.903
x1 = 0.6793	1120.5	1114.4	1108.8	1424	1418	1408	3.027	2.717	2.471
x1 = 0.7887	1168.2	1162.1	1156.6	1477	1468	1466	4.275	3.837	3.436
x1 = 0.8876	1212.2	1207.1	1201.5	1528	1520	1510	6.2	5.499	4.902
x1 = 0.9836	1254.2	1250.1	1244.8	1577	1572	1556	9.049	7.925	6.987
x1 = 1	1261.8	1257	1251.6	1588	1576	1558	10.03	8.795	7.837

O=S1(=O)CCCC1 [sulfolane] + CCCOC(C)=O
Details	mass density, 303.15 K [kg/m3]	mass density, 308.15 K [kg/m3]	mass density, 313.15 K [kg/m3]	speed of sound, 303.15 K [m/s]	speed of sound, 308.15 K [m/s]	speed of sound, 313.15 K [m/s]	viscosity, 303.15 K [mPa·s]	viscosity, 308.15 K [mPa·s]	viscosity, 313.15 K [mPa·s]
x1 = 0.0247	886.9	881.9	875.7	1154	1147	1134	0.5146	0.4827	0.4554
x1 = 0.1746	941.4	935.8	929.8	1214	1203	1189	0.726	0.6764	0.6342
x1 = 0.311	992.9	986.9	981.3	1266	1257	1243	1.019	0.9439	0.8781
x1 = 0.4416	1043.1	1037.9	1032.4	1322	1312	1301	1.438	1.325	1.222
x1 = 0.5468	1084.6	1079.6	1074	1368	1359	1352	1.922	1.762	1.617
x1 = 0.6489	1124.9	1120.1	1114.1	1419	1410	1401	2.624	2.375	2.176
x1 = 0.7639	1169.5	1164.7	1159.4	1474	1469	1458	3.92	3.502	3.185
x1 = 0.8733	1212.3	1207.6	1202.2	1530	1521	1510	5.863	5.217	4.662
x1 = 0.9823	1255.4	1251	1245.4	1579	1573	1555	9.305	8.132	7.222
x1 = 1	1261.8	1257	1251.6	1588	1576	1558	10.03	8.795	7.837

O=S1(=O)CCCC1 [sulfolane] + CCOC(C)=O
Details	mass density [kg/m3]	speed of sound [m/s]	viscosity [mPa·s]
298.15 K, x1 = 1	1263.9	1601	–
303.15 K, x1 = 0.0218	897.8	1134	0.4006
303.15 K, x1 = 0.1511	950.7	1196	0.5566
303.15 K, x1 = 0.2748	1001.1	1251	0.7832
303.15 K, x1 = 0.4012	1052.3	1313	1.118
303.15 K, x1 = 0.5068	1094	1366	1.5
303.15 K, x1 = 0.598	1127.6	1408	2.054
303.15 K, x1 = 0.7331	1175.4	1472	3.211
303.15 K, x1 = 0.8548	1215.5	1524	5.285
303.15 K, x1 = 0.9799	1255.5	1579	9.205
303.15 K, x1 = 1	1261.8	1588	10.03
308.15 K, x1 = 0.0218	893.2	1121	0.3819
308.15 K, x1 = 0.1511	947.1	1185	0.5275
308.15 K, x1 = 0.2748	997.7	1241	0.73
308.15 K, x1 = 0.4012	1048.8	1301	1.042
308.15 K, x1 = 0.5068	1090.3	1355	1.394
308.15 K, x1 = 0.598	1123.9	1398	1.882
308.15 K, x1 = 0.7331	1171.5	1465	2.923
308.15 K, x1 = 0.8548	1211.6	1515	4.756
308.15 K, x1 = 0.9799	1251.9	1569	8.078
308.15 K, x1 = 1	1257	1576	8.795
313.15 K, x1 = 0.0218	885.1	1092	0.3633
313.15 K, x1 = 0.1511	939.5	1154	0.4961
313.15 K, x1 = 0.2748	989.9	1216	0.6874
313.15 K, x1 = 0.4012	1040.5	1283	0.9781
313.15 K, x1 = 0.5068	1082.1	1346	1.292
313.15 K, x1 = 0.598	1116.7	1397	1.752
313.15 K, x1 = 0.7331	1164.7	1464	2.7
313.15 K, x1 = 0.8548	1205.5	1513	4.281
313.15 K, x1 = 0.9799	1245.8	1555	7.092
313.15 K, x1 = 1	1251.6	1558	7.837
